Consider 15 compounds from ChEMBL document CHEMBL1781991, “Heteroalicyclic carboxamidines as inhibitors of inducible nitric oxide synthase; the identification of (2R)-2-pyrrolidinecarboxamidine as a potent and selective haem-co-ordinating inhibitor” (Bioorg Med Chem Lett, 2011).

The structures appear in SMILES notation. Bounds are passed on as bounds.

The first experiment deals with T1, Nitric oxide synthase, inducible (Homo sapiens, UniProt P35228). Kind of experiment: Inhibition of human recombinant iNOS by microtiter plate assay.
T1 sequence (P35228 whole entry): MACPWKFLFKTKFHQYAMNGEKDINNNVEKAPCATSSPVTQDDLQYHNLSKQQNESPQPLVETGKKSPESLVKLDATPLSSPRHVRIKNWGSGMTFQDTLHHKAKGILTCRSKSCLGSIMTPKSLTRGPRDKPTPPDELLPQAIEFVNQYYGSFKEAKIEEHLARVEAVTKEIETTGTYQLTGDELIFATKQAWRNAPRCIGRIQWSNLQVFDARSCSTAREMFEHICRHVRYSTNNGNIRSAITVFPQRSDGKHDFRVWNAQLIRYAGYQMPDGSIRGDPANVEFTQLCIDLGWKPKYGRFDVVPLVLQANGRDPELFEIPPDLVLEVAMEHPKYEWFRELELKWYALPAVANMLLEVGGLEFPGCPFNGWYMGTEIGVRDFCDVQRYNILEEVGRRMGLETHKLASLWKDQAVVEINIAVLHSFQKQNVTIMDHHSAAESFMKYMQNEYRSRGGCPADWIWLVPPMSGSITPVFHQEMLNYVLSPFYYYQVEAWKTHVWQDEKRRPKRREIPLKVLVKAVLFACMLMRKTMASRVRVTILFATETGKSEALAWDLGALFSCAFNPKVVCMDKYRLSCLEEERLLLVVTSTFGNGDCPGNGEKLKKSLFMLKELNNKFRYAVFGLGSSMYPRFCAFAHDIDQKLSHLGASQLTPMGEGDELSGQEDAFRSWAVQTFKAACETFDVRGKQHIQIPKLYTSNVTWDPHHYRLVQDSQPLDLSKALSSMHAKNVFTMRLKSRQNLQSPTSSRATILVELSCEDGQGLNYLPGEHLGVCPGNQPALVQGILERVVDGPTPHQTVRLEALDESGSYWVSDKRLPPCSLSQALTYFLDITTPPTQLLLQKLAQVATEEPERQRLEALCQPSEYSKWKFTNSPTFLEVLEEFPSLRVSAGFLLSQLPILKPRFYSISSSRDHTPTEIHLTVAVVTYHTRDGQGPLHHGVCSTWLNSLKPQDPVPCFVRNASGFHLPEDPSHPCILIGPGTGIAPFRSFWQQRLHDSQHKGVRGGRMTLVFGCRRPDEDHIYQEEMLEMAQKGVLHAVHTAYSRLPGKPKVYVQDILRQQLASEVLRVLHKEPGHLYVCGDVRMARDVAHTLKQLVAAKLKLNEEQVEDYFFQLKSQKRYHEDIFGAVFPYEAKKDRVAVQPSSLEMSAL
With `N=C(N)C1CCCS1` (stereo not given), the IC50 was determined as 5300 nM.

With `N=C(N)C1CCCNC1` (stereo not given), the half-maximal inhibitory concentration (IC50) turned out to be 51000 nM.

Turning to `N=C(N)[C@@H]1CCCN1`, the IC50 is 9400 nM.

For `N=C(N)C1CCCO1` (stereo not given), the IC50 turned out to be 8900 nM.

Take `N=C(N)C1CC1` [CYCLOPROPANECARBOXIMIDAMIDE]: the IC50 is 790 nM.

As to `N=C(N)[C@H]1CCCN1`, the IC50 was 120 nM.

Consider `N=C(N)C1CNC1`, for which the IC50 came to 14000 nM.

As for `N=C(N)[C@H]1CCN1`, the half-inhibitory concentration (IC50) came out at 30 nM.

As for `N=C(N)[C@@H]1CCN1`, the IC50 worked out at 200 nM.

As for `N=C(N)C1C=CCN1` (stereo not given), the IC50 is 180 nM.

Consider `N=C(N)C1CCCCN1` (stereo not given), for which the IC50 is greater than 100000 nM.

With `N=C(N)C1CCNCC1`, the IC50 was determined as 58000 nM.

Consider `[H]/N=C(/N)C1CCCC1` [CYCLOPENTANECARBOXIMIDAMIDE], for which the IC50 is 4400 nM.

For the compound `N=C(N)C1CCCN1` (stereo not given), the IC50 was 700 nM.

Regarding `N=C(N)C1CCC1` [CYCLOBUTANECARBOXIMIDAMIDE], the IC50 is 380 nM.

The next experiment deals with T2, Nitric oxide synthase 3 (Homo sapiens, UniProt P29474).
T2 sequence (P29474 whole entry): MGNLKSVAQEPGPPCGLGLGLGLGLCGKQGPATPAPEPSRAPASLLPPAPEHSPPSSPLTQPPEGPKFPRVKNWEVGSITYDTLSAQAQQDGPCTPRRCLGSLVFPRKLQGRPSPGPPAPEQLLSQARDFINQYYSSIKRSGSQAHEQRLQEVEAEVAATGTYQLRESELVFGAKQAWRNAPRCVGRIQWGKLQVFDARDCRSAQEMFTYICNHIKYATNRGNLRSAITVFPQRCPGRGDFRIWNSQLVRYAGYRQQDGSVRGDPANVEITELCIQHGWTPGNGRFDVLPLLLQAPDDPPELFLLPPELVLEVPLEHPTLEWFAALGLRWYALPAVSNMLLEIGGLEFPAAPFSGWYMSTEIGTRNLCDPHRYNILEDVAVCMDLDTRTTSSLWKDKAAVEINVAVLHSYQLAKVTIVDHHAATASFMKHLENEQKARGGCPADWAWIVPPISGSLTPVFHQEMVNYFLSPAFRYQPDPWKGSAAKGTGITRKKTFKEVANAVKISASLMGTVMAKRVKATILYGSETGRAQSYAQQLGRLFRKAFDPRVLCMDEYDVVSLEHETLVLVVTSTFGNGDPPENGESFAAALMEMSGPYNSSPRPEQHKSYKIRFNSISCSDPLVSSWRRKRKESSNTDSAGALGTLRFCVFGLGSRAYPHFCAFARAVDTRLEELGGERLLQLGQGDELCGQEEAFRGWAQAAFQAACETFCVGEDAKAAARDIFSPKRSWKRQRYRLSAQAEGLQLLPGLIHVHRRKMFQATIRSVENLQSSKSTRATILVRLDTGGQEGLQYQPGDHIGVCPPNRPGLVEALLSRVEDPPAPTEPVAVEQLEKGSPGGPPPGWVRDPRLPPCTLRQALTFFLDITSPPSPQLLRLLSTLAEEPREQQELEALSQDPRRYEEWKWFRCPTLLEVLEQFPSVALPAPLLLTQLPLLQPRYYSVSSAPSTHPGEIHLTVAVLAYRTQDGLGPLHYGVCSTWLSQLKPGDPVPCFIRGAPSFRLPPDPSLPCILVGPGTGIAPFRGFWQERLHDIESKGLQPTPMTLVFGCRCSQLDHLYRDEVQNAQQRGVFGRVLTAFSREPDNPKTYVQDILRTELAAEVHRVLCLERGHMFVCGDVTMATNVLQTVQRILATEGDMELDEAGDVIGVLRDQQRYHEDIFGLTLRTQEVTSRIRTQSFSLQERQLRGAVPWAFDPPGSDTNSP
Kind of experiment: Inhibition of human recombinant eNOS by microtiter plate assay.
Take `N=C(N)[C@@H]1CCCN1`: the concentration for half-maximal inhibition (IC50) is greater than 100000 nM.

Regarding `N=C(N)[C@H]1CCCN1`, the IC50 was determined as 15000 nM.

In the case of `N=C(N)[C@H]1CCN1`, the IC50 turned out to be 250 nM.

For the compound `N=C(N)[C@@H]1CCN1`, the IC50 came out at 2400 nM.

The target of another experiment is Nitric oxide synthase 1 (Homo sapiens, UniProt P29475). Kind of experiment: Inhibition of human recombinant nNOS by microtiter plate assay.
Chain of Nitric oxide synthase 1 (P29475 whole entry): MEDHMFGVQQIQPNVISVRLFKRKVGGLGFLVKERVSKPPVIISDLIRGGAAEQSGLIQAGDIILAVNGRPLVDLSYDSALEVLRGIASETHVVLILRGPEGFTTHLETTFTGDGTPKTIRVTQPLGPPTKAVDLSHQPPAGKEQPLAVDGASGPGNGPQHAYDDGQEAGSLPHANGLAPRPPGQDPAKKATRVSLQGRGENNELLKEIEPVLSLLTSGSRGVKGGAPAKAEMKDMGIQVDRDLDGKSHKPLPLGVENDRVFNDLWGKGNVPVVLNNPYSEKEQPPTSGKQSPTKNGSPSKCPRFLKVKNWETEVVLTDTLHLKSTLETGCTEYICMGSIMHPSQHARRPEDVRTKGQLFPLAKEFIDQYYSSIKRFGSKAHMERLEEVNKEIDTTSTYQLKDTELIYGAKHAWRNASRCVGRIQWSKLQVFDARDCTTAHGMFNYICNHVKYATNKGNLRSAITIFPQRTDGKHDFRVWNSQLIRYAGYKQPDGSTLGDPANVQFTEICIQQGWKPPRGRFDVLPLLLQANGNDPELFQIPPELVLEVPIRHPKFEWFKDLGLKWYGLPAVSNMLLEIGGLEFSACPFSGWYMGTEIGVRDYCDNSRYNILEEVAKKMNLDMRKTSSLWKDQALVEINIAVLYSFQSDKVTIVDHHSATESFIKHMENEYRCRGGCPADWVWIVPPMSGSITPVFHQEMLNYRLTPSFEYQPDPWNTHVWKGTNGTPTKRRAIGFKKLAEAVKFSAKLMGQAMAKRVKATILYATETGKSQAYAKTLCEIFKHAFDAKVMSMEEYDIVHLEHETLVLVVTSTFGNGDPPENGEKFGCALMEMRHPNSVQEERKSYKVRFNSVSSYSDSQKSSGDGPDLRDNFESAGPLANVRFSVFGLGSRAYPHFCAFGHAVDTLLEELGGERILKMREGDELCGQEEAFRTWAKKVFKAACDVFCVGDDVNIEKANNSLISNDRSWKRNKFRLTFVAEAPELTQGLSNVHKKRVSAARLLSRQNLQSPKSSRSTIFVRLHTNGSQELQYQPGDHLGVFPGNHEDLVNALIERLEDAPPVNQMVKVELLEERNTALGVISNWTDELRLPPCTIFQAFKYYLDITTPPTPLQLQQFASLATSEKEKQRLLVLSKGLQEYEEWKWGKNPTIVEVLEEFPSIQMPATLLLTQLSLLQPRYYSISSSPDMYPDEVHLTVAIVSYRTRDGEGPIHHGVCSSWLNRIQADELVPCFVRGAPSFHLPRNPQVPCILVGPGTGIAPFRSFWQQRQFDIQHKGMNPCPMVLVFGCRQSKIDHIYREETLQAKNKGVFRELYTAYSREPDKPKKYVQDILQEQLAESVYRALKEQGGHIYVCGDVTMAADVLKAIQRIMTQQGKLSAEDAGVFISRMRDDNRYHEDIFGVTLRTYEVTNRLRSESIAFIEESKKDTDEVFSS
For `N=C(N)[C@@H]1CCCN1`, the IC50 was greater than 100000 nM.

With `N=C(N)[C@H]1CCCN1`, the IC50 worked out at 14000 nM.

For `N=C(N)[C@H]1CCN1`, the IC50 turned out to be 260 nM.

For the compound `N=C(N)[C@@H]1CCN1`, the IC50 came out at 1700 nM.

The next experiment addresses T1, Nitric oxide synthase, inducible. Nature of the experiment: Binding affinity to human recombinant iNOS delta 65 residue.
For `N=C(N)[C@@H]1CCCN1`, the Kd is greater than 40000 nM.

For the compound `N=C(N)[C@H]1CCCN1`, the Kd amounted to 630 nM.
